Test results taken from patent US7345088B2, “Pharmaceutical composition for use for the treatment of malignancies comprising in combination a bisphosphonates, a cox-2 inhibitor and a taxol” (Penn State Research Foundation, priority 2001, dated 2008).

Key:
Format in all cases: cell-based
[1] = tested on: HER-2/neu transfected human breast cancer cell line (MCF/18); test: MTT tetrazolium dye assay, cell number after 3-day incubation, MCF/18; conditions: MCF/18 cells
Procedure: (§1) Methods: The effect of combining the COX-2 inhibitor (SC 236) and zoledronic acid compared to either agent alone was tested in a HER-2/neu transfected human breast cancer cell line (MCF/18) and the control vector transfected line (MCF/neo). Cell number was determined after a 3-day incubation using the MTT tetrazolium dye assay.
as §1, with “(SC236) with” for “(SC 236) and”, “and/or taxotere” for “compared to either agent alone”

[2] = tested on: control vector transfected human breast cancer cell line (MCF/neo); test: MTT tetrazolium dye assay, cell number after 3-day incubation, MCF/neo; conditions: MCF/neo cells
Procedure: as §1
as §1, with “(SC236) with” for “(SC 236) and”, “and/or taxotere” for “compared to either agent alone”

[3] = tested on: DU-145 human prostate carcinoma cell line; test: MTT tetrazolium dye assay, cell number after 3 day treatment, DU-145; conditions: DU-145 cells
Procedure: Methods: The effect of combining the COX-2 inhibitor (SC236) and zoledronic acid compared to either agent alone was tested in the DU-145 human prostate carcinoma cell line. Cell number was determined after a 3 day treatment using the MTT tetrazolium dye assay.

[4] = single agent 1-10 μM, 3-day incubation (Example 19)
[5] = single agent, concentration not given, 3-day incubation (Example 20)

| SMILES | growth inhibition [1, 4] | growth inhibition [2, 4] | growth inhibition ([3]; 5 μM) [%] | growth inhibition ([3]; 1-25 μM) | growth inhibition [1, 5] | growth inhibition [2, 5] | growth inhibition ([3]; 1-10 μM) | inhibition at 3 µM ([3]; Homo sapiens, 72 h, 3 μM, read-out: growth inhibition) [%] |
| --- | --- | --- | --- | --- | --- | --- | --- | --- |
| NS(=O)(=O)c1ccc(-n2nc(C(F)(F)F)cc2-c2ccc(Cl)cc2)cc1 [SC236] | 15-41% | 18-53% | 40 | 0-77% |  |  |  |  |
| O=P(O)(O)C(O)(Cn1ccnc1)P(=O)(O)O [zoledronic acid, 2-(imidazol-1yl)-1-hydroxyethane-1,1-diphosphonic acid] | 9-53% | 8-67% |  |  | 9%-53% | 18%-67% | 8-70% | 23 |
